Data reported in patent US12415834B2, “GhR-binding peptide and composition comprising same” (priority 2021, dated 2025).
Starred links: 1 amine or outer side, 2 acyl side, 3 side chain; linkers in the order of their positions; H or OH if unused. Positions of bridges follow the written chain, without caps; N, C: chain ends. Non-standard residues stand in square brackets, D forms with d. Residues, ends and D or L forms follow the SMILES beside them. Groups on a side chain read outwards from the residue. *: point of attachment. X11 = NC(=O)[C@H](CCCCN*)NC(=O)CC[C@H](NC(=O)CC[C@H](NC(=O)CCCCCCCCCCCCCCCC(=O)O)C(=O)O)C(=O)O; X3 = NC(=O)[C@H](CCCCN*)NC(=O)CC[C@H](NC(=O)CC[C@H](NC(=O)CCCCCCCCCCCCCCC(=O)O)C(=O)O)C(=O)O; X5 = NC(=O)[C@H](CCCCN*)NC(=O)CC[C@H](NC(=O)CC[C@H](NC(=O)CCCCCc1ccccc1)C(=O)O)C(=O)O; X20 = CC(=O)N[C@@H](CCC(=O)N[C@@H](CCC(=O)N[C@@H](CCCCN*)C(N)=O)C(=O)O)C(=O)O; Trp(1-CH2CO) = O=C([C@H](Cc1cn(CC(=O)[*:3])c2ccccc12)N[*:1])[*:2]; Trp(5-OMe) = COc1ccc2[nH]cc(C[C@H](N)C(=O)O)c2c1; Butanoyl(4-(4-I-phenyl)) = O=C(CCCc1ccc(I)cc1)*; Trp(5-OH) = N[C@@H](Cc1c[nH]c2ccc(O)cc12)C(=O)O; Phe(4-COOH) = N[C@@H](Cc1ccc(C(=O)O)cc1)C(=O)O; Piperazinyl(4-CH2COOH) = O=C(O)CN1CCN(*)CC1; X7 = O=C(O)CN1CCC(N[*:1])(C(=O)[*:2])CC1; C16 diacid = O=C(O)CCCCCCCCCCCCCCC(=O)*; γGlu = O=C(O)[C@H](CCC(=O)[*:2])N[*:1]; Hexanoyl(6-Ph) = O=C(CCCCCc1ccccc1)*; X9 = O=C(CCCc1ccc(-c2ccccc2)cc1)*; NMeK = CN[C@@H](CCCCN)C(=O)O; Aib = CC(C)(N)C(=O)O; CO = O=C([*:1])[*:2]

These compounds were tested against T1, Recombinant human GhR-Fc protein (Homo sapiens, UniProt P10912) (assay: SPR binding assay (Biacore T200, single-cycle kinetics) of peptides against immobilized human GhR-Fc). Conditions: not given.
T1 construct: purchased R&D Systems
T1 sequence (P10912 with tags, fused parts or gaps limits assumed): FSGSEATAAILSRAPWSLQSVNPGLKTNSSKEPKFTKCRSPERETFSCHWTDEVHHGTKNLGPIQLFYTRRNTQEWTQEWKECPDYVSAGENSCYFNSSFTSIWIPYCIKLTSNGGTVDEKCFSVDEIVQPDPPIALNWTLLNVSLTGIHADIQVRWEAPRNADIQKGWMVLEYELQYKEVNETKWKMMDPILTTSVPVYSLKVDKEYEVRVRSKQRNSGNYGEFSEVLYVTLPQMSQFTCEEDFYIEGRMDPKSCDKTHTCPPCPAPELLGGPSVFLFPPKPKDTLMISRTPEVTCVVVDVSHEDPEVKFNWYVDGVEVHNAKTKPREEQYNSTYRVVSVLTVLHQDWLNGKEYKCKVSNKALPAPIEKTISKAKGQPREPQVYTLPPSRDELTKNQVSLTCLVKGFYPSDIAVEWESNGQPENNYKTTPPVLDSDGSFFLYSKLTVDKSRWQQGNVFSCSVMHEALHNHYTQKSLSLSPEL
Experimental: SPR assay was performed using Biacore T200 (cytiva: Former GE Healthcare). After the equilibration of Series S Sensor Chip CM5 (produced by cytiva: Former GE Healthcare) with Running Buffer (HBS-EP with 1% (v/v) DMSO), an EDC/NHS mixture was injected at a flow rate of 10 μL/min for 7 minutes to thereby activate the functional groups on sensor chip. Recombinant human GhR-Fc protein (R&D Systems) in 10 mM Acetate (pH 4.0) was injected immobilized to at a flow rate of 5 μL/min. It took 7 minutes to immobilize the GhR on the substrate surfaces of the sensor chip. Then Ethanolamine was injected at a flow rate of 10 μL/min for 7 minutes. 1M Ethanolamine (aq.) was injected at a flow rate of 10 μL/min for 420 seconds for capping.
Using these Peptide Samples, kinetics of peptides against human GhR-Fc protein were measured. The method adopted for sample measurement was a single-cycle kinetics method. The analysis was conducted using the evaluation software provided with Biacore T200. A DMSO correction curve obtained by solvent correction measurements was applied for the analysis. Kinetics fitting was done on the difference data obtained by subtracting the baseline data from sample measurement data. KD values were calculated based on the association rate constant (ka) and dissociation rate constant (kd). […]

SMILES | Kd
COc1ccc2[nH]cc(C[C@@H]3NC(=O)[C@H](CC(N)=O)NC(=O)[C@H](CO)NC(=O)[C@H](C(C)C)NC(=O)[C@H](C(C)C)NC(=O)[C@H](CCCCNC(=O)CC[C@H](NC(=O)CCCc4ccc(-c5ccccc5)cc4)C(=O)O)N(C)C(=O)[C@H](Cc4ccc(O)cc4)NC(=O)CSC[C@@H](C(=O)NCC(=O)N4CCC[C@H]4C(=O)N[C@H](CO)C(=O)N[C@H](CO)C(=O)N[C@H](CO)C(N)=O)NC(=O)[C@H](C(C)C)NC(=O)C(C)(C)NC(=O)[C@H](Cc4c[nH]c5ccc(O)cc45)NC(=O)[C@H](CCCCN)NC(=O)[C@H](Cc4ccc(C(=O)O)cc4)NC3=O)c2c1 [Compound 56] ({CH2CO}-Y[NMeK]([γGlu-X9])VVSN[Trp(5-OMe)][Phe(4-COOH)]K[Trp(5-OH)][Aib]VCGP[dS][dS][dS]-NH2; thioether N-13) | 2.87 nM

Same assay, conditions: SPR, hGhR; Table 1 bicyclic peptides; KD calculated from ka and kd; read-out: KD

Kd | SMILES
1.79 nM | CC(C)[C@@H]1NC(=O)[C@H](C(C)C)NC(=O)[C@@H]2CCCCNC(=O)Cn3cc(c4ccccc43)C[C@H](NC(=O)[C@H](CC(N)=O)NC(=O)[C@H](CO)NC1=O)C(=O)N[C@@H](Cc1ccc(O)cc1)C(=O)N[C@@H](CCCCNC(=O)N1CCN(CC(=O)O)CC1)C(=O)N[C@@H](Cc1c[nH]c3ccc(O)cc13)C(=O)NC(C)(C)C(=O)N[C@@H](C(C)C)C(=O)N[C@H](C(=O)NCCCC[C@H](NC(=O)CC[C@H](NC(=O)CC[C@H](NC(=O)CCCCCCCCCCCCCCC(=O)O)C(=O)O)C(=O)O)C(N)=O)CSCC(=O)N[C@@H](Cc1ccc(O)cc1)C(=O)N2C [Compound 27] ({CH2CO}-Y[NMeK]VVSN[Trp(1-CH2CO)]YK([CO-Piperazinyl(4-CH2COOH)])[Trp(5-OH)][Aib]VC-X3; lactam 2-7; thioether N-13)
1.93 nM | CC(C)[C@@H]1NC(=O)[C@H](C(C)C)NC(=O)[C@@H]2CCCCNC(=O)Cn3cc(c4ccccc43)C[C@H](NC(=O)[C@H](CC(N)=O)NC(=O)[C@H](CO)NC1=O)C(=O)N[C@@H](Cc1ccc(C(=O)O)cc1)C(=O)N[C@@H](CCCCN)C(=O)N[C@@H](Cc1c[nH]c3ccc(O)cc13)C(=O)NC(C)(C)C(=O)N[C@@H](C(C)C)C(=O)N[C@H](C(=O)NCCCC[C@H](NC(=O)CC[C@H](NC(=O)CC[C@H](NC(=O)CCCCCc1ccccc1)C(=O)O)C(=O)O)C(N)=O)CSCC(=O)N[C@@H](Cc1ccc(C(=O)O)cc1)C(=O)N2C [Compound 16] ({CH2CO}-[Phe(4-COOH)][NMeK]VVSN[Trp(1-CH2CO)][Phe(4-COOH)]K[Trp(5-OH)][Aib]VC-X5; lactam 2-7; thioether N-13)
2.23 nM | CC(C)[C@@H]1NC(=O)[C@H](C(C)C)NC(=O)[C@@H]2CCCCNC(=O)Cn3cc(c4ccccc43)C[C@H](NC(=O)[C@H](CC(N)=O)NC(=O)[C@H](CO)NC1=O)C(=O)N[C@@H](Cc1ccc(C(=O)O)cc1)C(=O)N[C@@H](CCCCN)C(=O)N[C@@H](Cc1c[nH]c3ccc(O)cc13)C(=O)NC(C)(C)C(=O)N[C@@H](C(C)C)C(=O)N[C@H](C(=O)NCC(=O)N1CCC[C@H]1C(=O)N[C@H](CO)C(=O)N[C@H](CO)C(=O)N[C@H](CO)C(=O)N[C@@H](CCCCNC(=O)CC[C@H](NC(=O)CC[C@H](NC(=O)CCCCCCCCCCCCCCC(=O)O)C(=O)O)C(=O)O)C(N)=O)CSCC(=O)N[C@@H](Cc1ccc(O)cc1)C(=O)N2C [Compound 25] ({CH2CO}-Y[NMeK]VVSN[Trp(1-CH2CO)][Phe(4-COOH)]K[Trp(5-OH)][Aib]VCGP[dS][dS][dS]K([γGlu-γGlu-C16 diacid])-NH2; lactam 2-7; thioether N-13)
2.53 nM | CC(C)[C@@H]1NC(=O)[C@H](C(C)C)NC(=O)[C@@H]2CCCCNC(=O)Cn3cc(c4ccccc43)C[C@H](NC(=O)[C@H](CC(N)=O)NC(=O)[C@H](CO)NC1=O)C(=O)N[C@@H](Cc1ccc(C(=O)O)cc1)C(=O)N[C@@H](CCCCN)C(=O)N[C@@H](Cc1c[nH]c3ccc(O)cc13)C(=O)NC(C)(C)C(=O)N[C@@H](C(C)C)C(=O)N[C@H](C(=O)NCCCC[C@H](NC(=O)CC[C@H](NC(=O)CC[C@H](NC(=O)CCCCCCCCCCCCCCCC(=O)O)C(=O)O)C(=O)O)C(N)=O)CSCC(=O)N[C@@H](Cc1ccc(C(=O)O)cc1)C(=O)N2C [Compound 61] ({CH2CO}-[Phe(4-COOH)][NMeK]VVSN[Trp(1-CH2CO)][Phe(4-COOH)]K[Trp(5-OH)][Aib]VC-X11; lactam 2-7; thioether N-13)
3.51 nM | CC(=O)N[C@@H](CCC(=O)N[C@@H](CCC(=O)N[C@@H](CCCCNC(=O)[C@@H]1CSCC(=O)N[C@@H](Cc2ccc(C(=O)O)cc2)C(=O)N(C)[C@H]2CCCCNC(=O)Cn3cc(c4ccccc43)C[C@H](NC(=O)[C@H](CC(N)=O)NC(=O)[C@H](CO)NC(=O)[C@H](C(C)C)NC(=O)[C@H](C(C)C)NC2=O)C(=O)N[C@@H](Cc2ccc(C(=O)O)cc2)C(=O)N[C@@H](CCCCN)C(=O)N[C@@H](Cc2c[nH]c3ccc(O)cc23)C(=O)NC(C)(C)C(=O)N[C@@H](C(C)C)C(=O)N1)C(N)=O)C(=O)O)C(=O)O [Compound 58] ({CH2CO}-[Phe(4-COOH)][NMeK]VVSN[Trp(1-CH2CO)][Phe(4-COOH)]K[Trp(5-OH)][Aib]VC-X20; lactam 2-7; thioether N-13)

Same assay, conditions: SPR, hGhR; Table 2 monocyclic peptides; KD calculated from ka and kd; read-out: KD

Kd | SMILES
7.57 nM | COc1ccc2[nH]cc(C[C@@H]3NC(=O)[C@H](CC(N)=O)NC(=O)[C@H](CO)NC(=O)[C@H](C(C)C)NC(=O)[C@H](C(C)C)NC(=O)[C@H](CCCCNC(=O)CC[C@H](NC(=O)CCCc4ccc(I)cc4)C(=O)O)N(C)C(=O)[C@H](Cc4ccc(O)cc4)NC(=O)CSC[C@@H](C(=O)NCC(=O)N4CCC[C@H]4C(=O)N[C@H](CO)C(=O)N[C@H](CO)C(=O)N[C@H](CO)C(N)=O)NC(=O)[C@H](C(C)C)NC(=O)C4(CCN(CC(=O)O)CC4)NC(=O)[C@H](Cc4c[nH]c5ccc(O)cc45)NC(=O)[C@H](CCCCN)NC(=O)[C@H](Cc4ccc(C(=O)O)cc4)NC3=O)c2c1 [Compound 51] ({CH2CO}-Y[NMeK]([γGlu-Butanoyl(4-(4-I-phenyl))])VVSN[Trp(5-OMe)][Phe(4-COOH)]K[Trp(5-OH)][X7]VCGP[dS][dS][dS]-NH2; thioether N-13)
2.08 nM | COc1ccc2[nH]cc(C[C@@H]3NC(=O)[C@H](CC(N)=O)NC(=O)[C@H](CO)NC(=O)[C@H](C(C)C)NC(=O)[C@H](C(C)C)NC(=O)[C@H](CCCCNC(=O)CC[C@H](NC(=O)CCCc4ccc(I)cc4)C(=O)O)N(C)C(=O)[C@H](Cc4ccc(O)cc4)NC(=O)CSC[C@@H](C(=O)NCC(=O)N4CCC[C@H]4C(=O)N[C@H](CO)C(=O)N[C@H](CO)C(=O)N[C@H](CO)C(N)=O)NC(=O)[C@H](C(C)C)NC(=O)C(C)(C)NC(=O)[C@H](Cc4c[nH]c5ccc(O)cc45)NC(=O)[C@H](CCCCN)NC(=O)[C@H](Cc4ccc(C(=O)O)cc4)NC3=O)c2c1 [Compound 54] ({CH2CO}-Y[NMeK]([γGlu-Butanoyl(4-(4-I-phenyl))])VVSN[Trp(5-OMe)][Phe(4-COOH)]K[Trp(5-OH)][Aib]VCGP[dS][dS][dS]-NH2; thioether N-13)
1.25 nM | COc1ccc2[nH]cc(C[C@@H]3NC(=O)[C@H](CC(N)=O)NC(=O)[C@H](CO)NC(=O)[C@H](C(C)C)NC(=O)[C@H](C(C)C)NC(=O)[C@H](CCCCNC(=O)CC[C@H](NC(=O)CCCCCc4ccccc4)C(=O)O)N(C)C(=O)[C@H](Cc4ccc(O)cc4)NC(=O)CSC[C@@H](C(=O)NCC(=O)N4CCC[C@H]4C(=O)N[C@H](CO)C(=O)N[C@H](CO)C(=O)N[C@H](CO)C(N)=O)NC(=O)[C@H](C(C)C)NC(=O)C(C)(C)NC(=O)[C@H](Cc4c[nH]c5ccc(O)cc45)NC(=O)[C@H](CCCCN)NC(=O)[C@H](Cc4ccc(C(=O)O)cc4)NC3=O)c2c1 [Compound 57] ({CH2CO}-Y[NMeK]([γGlu-Hexanoyl(6-Ph)])VVSN[Trp(5-OMe)][Phe(4-COOH)]K[Trp(5-OH)][Aib]VCGP[dS][dS][dS]-NH2; thioether N-13)
5.47 nM | COc1ccc2[nH]cc(C[C@@H]3NC(=O)[C@H](CC(N)=O)NC(=O)[C@H](CO)NC(=O)[C@H](C(C)C)NC(=O)[C@H](C(C)C)NC(=O)[C@H](CCCCNC(=O)CC[C@H](NC(=O)CCCc4ccc(I)cc4)C(=O)O)N(C)C(=O)[C@H](Cc4ccc(C(=O)O)cc4)NC(=O)CSC[C@@H](C(N)=O)NC(=O)[C@H](C(C)C)NC(=O)C(C)(C)NC(=O)[C@H](Cc4c[nH]c5ccc(O)cc45)NC(=O)[C@H](CCCCNC(=O)N4CCN(CC(=O)O)CC4)NC(=O)[C@H](Cc4ccc(C(=O)O)cc4)NC3=O)c2c1 [Compound 35] ({CH2CO}-[Phe(4-COOH)][NMeK]([γGlu-Butanoyl(4-(4-I-phenyl))])VVSN[Trp(5-OMe)][Phe(4-COOH)]K([CO-Piperazinyl(4-CH2COOH)])[Trp(5-OH)][Aib]VC-NH2; thioether N-13)
3.79 nM | COc1ccc2[nH]cc(C[C@@H]3NC(=O)[C@H](CC(N)=O)NC(=O)[C@H](CO)NC(=O)[C@H](C(C)C)NC(=O)[C@H](C(C)C)NC(=O)[C@H](CCCCNC(=O)CC[C@H](NC(=O)CC[C@H](NC(=O)CCCc4ccc(I)cc4)C(=O)O)C(=O)O)N(C)C(=O)[C@H](Cc4ccc(C(=O)O)cc4)NC(=O)CSC[C@@H](C(=O)NCC(=O)N4CCC[C@H]4C(=O)N[C@H](CO)C(=O)N[C@H](CO)C(=O)N[C@H](CO)C(N)=O)NC(=O)[C@H](C(C)C)NC(=O)C(C)(C)NC(=O)[C@H](Cc4c[nH]c5ccc(O)cc45)NC(=O)[C@H](CCCCN)NC(=O)[C@H](Cc4ccc(C(=O)O)cc4)NC3=O)c2c1 [Compound 42] ({CH2CO}-[Phe(4-COOH)][NMeK]([γGlu-γGlu-Butanoyl(4-(4-I-phenyl))])VVSN[Trp(5-OMe)][Phe(4-COOH)]K[Trp(5-OH)][Aib]VCGP[dS][dS][dS]-NH2; thioether N-13)
